Data set [1] addresses T1, noradrenaline (NA) reuptake sites (Rattus norvegicus, UniProt Q63380).
T1 construct: Frontal cortical tissue from the brains of male Charles River rats; from tissue; host or cells: rat frontal cortical membranes
The data set is described as follows: NA uptake: displacement of [3H]nisoxetine from noradrenaline reuptake sites, rat frontal cortical membranes. Type of data set: binding. The following applies: [3H]nisoxetine 0.6 nM, rat frontal cortical membranes; fit to data from three experiments. As to the method:
Frontal cortical tissue from the brains of male Charles River rats weighing 150-250 g was homogenised in ice-cold 50 mM Tris-HCl, pH 7.4 (at 25° C.) containing 120 mM sodium chloride and 5 mM potassium chloride (Tris buffer; 1:60 w/v) using a Kinematic polytron (speed setting 6 for 10 seconds) and centrifuged at 40,000 g for 10 minutes. The supernatant was discarded and the pellet rehomogenised in Tris buffer, 1:60 w/v, and centrifuged at 40,000 g for 10 minutes. This step was repeated twice more so that, in total, the brain tissue was homogenised and centrifuged four times. The final pellet was resuspended in 50 mM Tris-HCl, pH 7.4 containing 300 mM sodium chloride and 5 mM potassium chloride (equivalent to 18.75 mg wet weight of tissue/ml) and used immediately in the binding assay. All centrifugations were performed at 4° C.
Membranes (400 μl; equivalent to 7.5 mg wet weight of tissue/tube) were incubated with 50 μl [^3H]nisoxetine at a single concentration of 0.6 nM and 50 μl of distilled water (total binding) or 50 μl^− of test compound (at a single concentration 10^−6M or at 10 concentrations ranging from 10^−11-10^−3 M) or 50 μl of mazindol (1 μM; non-specific binding) for 4 h at 4° C. Membrane bound radioactivity was recovered by filtration under vacuum through Skatron 11734 filters using a Skatron cell harvester. Filters were rapidly washed with ice-cold 50 mM Tris-HCl, pH 7.4 containing 120 mM sodium chloride and 5 mM potassium chloride (wash setting 9,9,0). The scored filter paper discs were punched out into vials, scintillation fluid added and radioactivity determined by liquid scintillation counting.
(§1) For each of these tests measuring the ability of compounds of Formula I to displace standard ligands from 5-HT1A receptors and 5-hydroxytryptamine (5-HT) and noradrenaline (NA) reuptake sites and muscarinic receptors in vitro, the percentage displacement of specific binding of tritiated ligand by 10^−6 M test compound was calculated in the following way.
(§2) Firstly, specific binding of tritiated ligand in the absence (A) and presence (B) of test compound was determined:
(§3) In the absence of compound: A(dpm)=Total binding (dpm)−Non-specific binding (dpm) In the presence of compound (10^−6 M): B(dpm)=Binding at 10^−6M (dpm)−Non-specific binding (dpm)
(§4) The specific binding of tritiated ligand in the presence (B) of compound was then converted to a percentage of specific binding of tritiated ligand in the absence (A) of compound: % Specific binding at 10^−6 M=B(dpm)/A(dpm)×100
(§5) The percentage displacement of specific binding of tritiated ligand by the test compound (10^−6 M) was then obtained by subtraction of the percentage specific binding in the presence of compound from the percentage specific binding in the absence of compound, which is taken as the maximum binding and so equals 100%:
(§6) % Displacement at 10^−6 M=100−% Specific binding at 10^−6 M.
(§7) In some cases, displacement curves were then produced for compounds which displaced ≧50% of specific binding of the tritiated ligand at 10^−6 M using a range of concentrations of the compound. The Ki was then calculated by simultaneous fitting using equations derived from the Feldman equations by robust non-linear regression to data from three experiments simultaneously (De Lean et al., 1978; Munson and Rodbard, 1980; Feldman, 1992). Munson P J and Rodbard D. Ligand: a versatile computerised approach for characterisation of ligand binding systems. Anal Biochem 1980; 107: 220. Feldman HA. Mathematical theory of complex ligand binding systems at equilibrium: some methods for parameter fitting. Anal Biochem 1992: 48, 317. De Lean A, Munson P J and Rodbard D. Simultaneous analysis of families of sigmoidal curves: application to bioassay, radioligand assay, and physiological dose-response curves. Am J Physiol 1978: 235 (2), E97-E102. […]
On the technique in general: In a radioligand displacement assay an active substance lowers the binding of a labelled ligand.

The next data set deals with muscarinic receptors. Put plainly: Muscarinic binding: displacement of [3H]N-methylscopolamine, rat frontal cortical membranes. On the procedure: Frontal cortical tissue from the brains of male Charles River rats weighing 150-250 g was homogenised in ice-cold 20 mM HEPES buffer, pH 7.5 (measured at 25° C.) containing 100 mM sodium chloride and 10 mM magnesium chloride (1:10 w/v) using a Polytron PT3100 (speed setting 21,700 rpm, 3×5 seconds) and centrifuged at 49,500 g for 30 minutes at 4° C. The supernatant was discarded and the pellet rehomogenised in 20 mM HEPES buffer, pH 7.5 containing 100 mM sodium chloride and 10 mM magnesium chloride (equivalent to 12.5 mg wet weight of tissue/ml). Membranes were stored at −80° C. until required.
Membranes were thawed, diluted 1:10 in ice-cold 20 mM HEPES buffer, pH 7.5 containing 100 mM sodium chloride and 10 mM magnesium chloride and homogenised using a Polytron PT3100 as above. Diluted membranes (200 μl; equivalent to 0.25 mg wet weight of tissue/tube) were incubated with 200 μl of 20 mM HEPES buffer, pH 7.5 containing 100 mM sodium chloride and 10 mM magnesium chloride and 50 μl [^3H]N-methylscopolamine at a single concentration of 0.15 nM and 50 μl distilled water (total binding) or 50 μl test compound (at a single concentration of 10^−6 M or at 10 concentrations ranging from 10^−11-10^−3 M) or 50 μl atropine sulphate (1 μM; non-specific binding) for 30 min at 30° C. Membrane bound radioactivity was recovered by filtration under vacuum through Skatron 11734 filters using a Skatron cell harvester. Filters were rapidly washed with ice-cold 20 mM HEPES buffer, pH 7.5 (wash 1,2 at setting 5,5). The scored filter paper discs were punched out into vials, scintillation fluid added and radioactivity determined by liquid scintillation counting.
as §1, §2, §3, §4, §5, §6, §7

These results are taken from patent US6900216B2, “Dihydroimidazo[2,1-b]thiazole and dihydro-5h-thiazolo[3,2-A]pyrimidines as antidepressant agents” (Knoll GmbH, priority 2000, dated 2005).

Structures are written as SMILES.

T1 sequence (Q63380 1-617): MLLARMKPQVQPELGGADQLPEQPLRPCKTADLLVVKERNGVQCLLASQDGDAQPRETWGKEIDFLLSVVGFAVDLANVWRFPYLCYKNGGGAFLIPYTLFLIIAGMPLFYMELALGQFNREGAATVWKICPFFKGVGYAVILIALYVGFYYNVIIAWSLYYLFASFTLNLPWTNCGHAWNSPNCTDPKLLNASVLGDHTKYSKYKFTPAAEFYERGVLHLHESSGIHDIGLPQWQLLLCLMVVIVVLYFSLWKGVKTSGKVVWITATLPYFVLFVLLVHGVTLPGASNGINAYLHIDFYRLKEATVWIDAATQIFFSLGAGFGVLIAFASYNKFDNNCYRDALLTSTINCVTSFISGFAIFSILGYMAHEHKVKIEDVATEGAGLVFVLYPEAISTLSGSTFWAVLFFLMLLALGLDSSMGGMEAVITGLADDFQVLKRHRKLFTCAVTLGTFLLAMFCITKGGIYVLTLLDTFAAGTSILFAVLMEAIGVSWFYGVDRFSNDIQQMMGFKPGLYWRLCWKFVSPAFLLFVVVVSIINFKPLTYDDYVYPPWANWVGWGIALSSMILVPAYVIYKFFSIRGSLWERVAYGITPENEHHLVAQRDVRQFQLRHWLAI

For `OCC1=C(c2cccc3sccc23)N2CCN=C2S1` [Example 3, [3-(benzo[b]thiophen-4-yl)-5,6-dihydroimidazo[2,1-b]thiazol-2-yl]methanol], the melting point (as a rule, the temperature, or range, at which the solid turns liquid) was 145 to 149 °C. Besides, in data set [1], the affinity corresponds to a Ki of 2.9 nM. Besides, the “Muscarinic % displacement at 10^−6 M” value in the data set with muscarinic receptors (10^−6 M test compound, single determination, [3H]N-methylscopolamine) is −3%.
On to `Br.CCC1=C(c2cccc3sccc23)N2CCN=C2S1` [Example 13, 3-(benzo[b]thiophen-4-yl)-2-ethyl-5,6-dihydroimidazo[2,1-b]thiazole hydrobromide], for which the melting point was in the range of 144 to 146 °C. The Ki (commonly the equilibrium dissociation constant of an inhibitor or competing ligand from its target) in data set [1] stood at 3.6 nM. The molecule further registered a Ki at muscarinic receptors ([3H]N-methylscopolamine 0.15 nM, rat frontal cortical membranes) of 371 nM.
